Like-named read-outs stand apart in the source and are kept apart here.
How the values were obtained:
[1] = tested on: convulsions induced by electrical stimulation (maximal electroshock); test: Maximal electroshock test (MES), 50 mA electrical stimulation; assay type: in vivo, mice; conditions: Mus musculus, ip, read-out: Anticonvulsive activity ED50, MES
Text: (§1) The anticonvulsive effect of the compounds was studied on three types of experimental epilepsy. Convulsions were induced in mice by subcutaneous administration of pentylene tetrazole or strychnine, or by electrical stimulation with a 50 mA current (E. A. Swinyard, Assay of antiepileptic drug activity in experimental animals: Standard tests in International Enocyclopedica of Pharmacology and Therapeutics, Section 19, vol 1: Anticonvulsant Drugs, 1972). […] No sedative effect could be observed.
MES = maximal electroshock test

[2] = tested on: convulsions induced by strychnine; test: Strychnine convulsant threshold test (STR); assay type: in vivo, mice; conditions: Mus musculus, ip, read-out: Anticonvulsive activity ED50, STR
Text: as §1
STR = strychnine convulsant threshold test

[3] = tested on: arrhythmia in guinea-pigs after infusion of ouabain; test: Ouabain-induced arrhythmia in guinea-pigs; conditions: for Ouabain dose ± SE, inducing arrhythmia / Ouabain dose ± SE, inducing asystole: ouabain 20 μg/kg/min.
Text: Arrhythmia was induced by K^+ deficiency and by aconitine. […] Besides the above-described in vitro tests, an in vivo method was used: the antiarrhythmic effect of the compounds was studied in quineapigs with ouabain-induced arrhythmia.

bacteria = conditions: cited from earlier work
[4] = tested on: convulsions induced by pentylene tetrazole; test: Metrazole (pentylene tetrazole) convulsant threshold test (MET); assay type: in vivo, mice; conditions: Mus musculus, ip, read-out: Anticonvulsive activity ED50, MET
Text: as §1
MET = metrazole (= pentylene tetrazole) convulsant threshold test.

[5] = tested on: hexobarbiturate-induced sleep in mice; test: Hexobarbiturate-induced sleep; assay type: in vivo
arrhythmia = test: Antiarrhythmic effect (general statement); conditions: in words
Text: Isolated perfused rat heart, prepared after the method of Langendorff, and isolated spontaneously beating rat atria (W. C. Holland & J. H. Burn, J. Brit. Med., vol 1, 1031, 1958) were used for studies of the antiarrhythmic effect of the compounds. Arrhythmia was induced by K^+ deficiency and by aconitine. […] Besides the above-described in vitro tests, an in vivo method was used: the antiarrhythmic effect of the compounds was studied in quineapigs with ouabain-induced arrhythmia.

[6] = tested on: convulsions induced by pentylene tetrazole, strychnine or electrical stimulation; test: Anticonvulsive effect in three types of experimental epilepsy; assay type: in vivo, mice; conditions: in words
Text: as §1

[7] = injectable forms; cited from earlier work
[8] = mice, intraperitoneal; cited from earlier work
epileptic patients = conditions: cited from earlier work
experimental epilepsy = conditions: several types of experimental epilepsy; cited from earlier work
[9] = mice, maximal electroshock test
[10] = O-value (initial), group dosed 12 mg/kg iv
[11] = mice, metrazole convulsant threshold test
[12] = O-value (initial), group dosed 3 mg/kg iv
[13] = O-value (initial), group dosed 6 mg/kg iv

With `NS(=O)(=O)CCN1C(=O)c2ccccc2C1=O` [2-Phthalimidoethanesulfone amide, 2-phthalimidoethane sulfonamide] the ED50 [1, 9] was 122 mg/kg, the ED50 [2] was 93 mg/kg and the “HR ± SE, 5 min. after adm. of test compound” value (from here on “HR ± SE … of test compound”) ([3]; 12 mg/kg iv) was 330 beats/min. The “Ouabain dose ± SE, inducing arrhythmia” value ([3]; 12 mg/kg iv) was 0.17 mg/kg, the “Ouabain dose ± SE, inducing asystole” value ([3]; 12 mg/kg iv) was 0.22 mg/kg and the “HR ± SE, O-value” [3, 10] was 333 beats/min. For the same molecule, the Antibacterial properties (bacteria) was “did not come up to expectations” and the ED50 [4, 11] was over 300 mg/kg.

In the case of `CN(C)S(=O)(=O)CCN1C(=O)c2ccccc2C1=O` [2-Phthalimidoethanesulfone dimethylamide, 2-phthalimidoethanesulfone dimethylamide], the ED50 [1, 9] is listed as 113 mg/kg, the ED50 [2] is listed as 234 mg/kg and the Antibacterial properties (bacteria) is listed as “did not come up to expectations”. The ED50 [4, 11] was 231 mg/kg.

With `CCNS(=O)(=O)CCN1C(=O)c2ccccc2C1=O` [2-Phthalimidoethanesulfone ethylamide] the ED50 [1, 9] was 103 mg/kg, the ED50 [2] was 126 mg/kg and the “HR ± SE … of test compound” value ([3]; 3 mg/kg iv) was 332 ± 16 beats/min. For the same molecule, the “Ouabain dose ± SE, inducing arrhythmia” value ([3]; 3 mg/kg iv) was 0.175 ± 0.005 mg/kg, the “Ouabain dose ± SE, inducing asystole” value ([3]; 3 mg/kg iv) was 0.318 ± 0.022 mg/kg and the “HR ± SE … of test compound” value ([3]; 6 mg/kg iv) was 270 beats/min. The “Ouabain dose ± SE, inducing arrhythmia” value ([3]; 6 mg/kg iv) was 0.15 mg/kg, the “Ouabain dose ± SE, inducing asystole” value ([3]; 6 mg/kg iv) was 0.36 mg/kg and the “HR ± SE, O-value” [3, 12] was 332 ± 22 beats/min. The “HR ± SE, O-value” [3, 13] was 285 beats/min and the ED50 [4, 11] was 138 mg/kg.

With `CC(C)NS(=O)(=O)CCN1C(=O)c2ccccc2C1=O` [2-Phthalimidoethanesulfone isopropylamide] the ED50 [1] was 130 mg/kg, the ED50 [2] was 227 mg/kg and the “HR ± SE … of test compound” value ([3]; 3 mg/kg iv) was 312 ± 27 beats/min. The “Ouabain dose ± SE, inducing arrhythmia” value ([3]; 3 mg/kg iv) was 0.197 ± 0.032 mg/kg, the “Ouabain dose ± SE, inducing asystole” value ([3]; 3 mg/kg iv) was 0.297 ± 0.027 mg/kg and the “HR ± SE … of test compound” value ([3]; 6 mg/kg iv) was 291 beats/min. The “Ouabain dose ± SE, inducing arrhythmia” value ([3]; 6 mg/kg iv) was 0.155 mg/kg, the “Ouabain dose ± SE, inducing asystole” value ([3]; 6 mg/kg iv) was 0.29 mg/kg and the “HR ± SE, O-value” [3, 12] was 321 ± 39 beats/min. For the same molecule, the “HR ± SE, O-value” [3, 13] was 303 beats/min and the ED50 [4] was over 300 mg/kg.

With `CNS(=O)(=O)CCN1C(=O)c2ccccc2C1=O` [2-Phthalimidoethanesulfone methylamide] the ED50 [1, 9] was 112 mg/kg, the ED50 [2] was 189 mg/kg and the “HR ± SE … of test compound” value ([3]; 6 mg/kg iv) was 255 ± 51 beats/min. The “Ouabain dose ± SE, inducing arrhythmia” value ([3]; 6 mg/kg iv) was 0.188 ± 0.017 mg/kg, the “Ouabain dose ± SE, inducing asystole” value ([3]; 6 mg/kg iv) was 0.345 ± 0.02 mg/kg and the “HR ± SE … of test compound” value ([3]; 12 mg/kg iv) was 399 ± 22 beats/min. For the same molecule, the “Ouabain dose ± SE, inducing arrhythmia” value ([3]; 12 mg/kg iv) was 0.195 ± 0.015 mg/kg, the “Ouabain dose ± SE, inducing asystole” value ([3]; 12 mg/kg iv) was 0.265 ± 0.05 mg/kg and the “HR ± SE, O-value” [3, 13] was 261 ± 45 beats/min. The “HR ± SE, O-value” [3, 10] was 369 ± 30 beats/min and the ED50 [4, 11] was 170 mg/kg.

For `CCCCNS(=O)(=O)CCN1C(=O)c2ccccc2C1=O` [2-Phthalimidoethanesulfone n-butylamide], the ED50 [1, 9] was 219 mg/kg, the “HR ± SE … of test compound” value ([3]; 3 mg/kg iv) was 213 beats/min and the “Ouabain dose ± SE, inducing arrhythmia” value ([3]; 3 mg/kg iv) was 0.175 mg/kg. For the same molecule, the “Ouabain dose ± SE, inducing asystole” value ([3]; 3 mg/kg iv) was 0.34 mg/kg, the “HR ± SE … of test compound” value ([3]; 6 mg/kg iv) was 256 ± 43 beats/min and the “Ouabain dose ± SE, inducing arrhythmia” value ([3]; 6 mg/kg iv) was 0.2 ± 0 mg/kg. For the same molecule, the “Ouabain dose ± SE, inducing asystole” value ([3]; 6 mg/kg iv) was 0.382 ± 0.037 mg/kg, the “HR ± SE, O-value” [3, 12] was 210 beats/min and the “HR ± SE, O-value” [3, 13] was 256 ± 19 beats/min. For the same molecule, the ED50 [4, 11] was over 300 mg/kg.

For `CCCNS(=O)(=O)CCN1C(=O)c2ccccc2C1=O` [2-Phthalimidoethanesulfone n-propylamide], the ED50 [1, 9] was 252 mg/kg, the ED50 [2] was over 300 mg/kg and the “HR ± SE … of test compound” value ([3]; 2 mg/kg iv) was 243 ± 18 beats/min. The “Ouabain dose ± SE, inducing arrhythmia” value ([3]; 2 mg/kg iv) was 0.165 ± 0.01 mg/kg, the “Ouabain dose ± SE, inducing asystole” value ([3]; 2 mg/kg iv) was 0.272 ± 0.027 mg/kg and the “HR ± SE … of test compound” value ([3]; 3 mg/kg iv) was 294 ± 45 beats/min. For the same molecule, the “Ouabain dose ± SE, inducing arrhythmia” value ([3]; 3 mg/kg iv) was 0.16 ± 0.01 mg/kg, the “Ouabain dose ± SE, inducing asystole” value ([3]; 3 mg/kg iv) was 0.322 ± 0.062 mg/kg and the “HR ± SE, O-value” ([3]; O-value (initial), group dosed 2 mg/kg iv) was 229 ± 34 beats/min. For the same molecule, the “HR ± SE, O-value” [3, 12] was 286 ± 55 beats/min and the ED50 [4, 11] was over 300 mg/kg.

Molecule `O=C1c2ccccc2C(=O)N1CCS(=O)(=O)N1CCCC1` [2-Phthalimidoethanesulfone pyrrolidide] has an ED50 [1, 9] of over 300 mg/kg and an ED50 [4, 11] of over 300 mg/kg.

With `CC(C)(C)NS(=O)(=O)CCN1C(=O)c2ccccc2C1=O` [2-Phthalimidoethanesulfone tert-butylamide] the ED50 [1, 9] was over 300 mg/kg and the ED50 [4, 11] was over 300 mg/kg.

For `CC(=O)NS(=O)(=O)CCN1C(=O)c2ccccc2C1=O` [2-Phthalimidoethanesulfonyl acetamide, 2-phthalimidoethanesulfonyl acetamide], the ED50 [1, 9] was over 300 mg/kg, the “Prolongation of hexobarbiturate-induced sleep” value [5] was “did not prolong the time of sleep” and the Antiarrhythmic effect (arrhythmia) was “had an antiarrhythmic”. The “HR ± SE … of test compound” value ([3]; 1 mg/kg iv) was 316 ± 10 beats/min, the “Ouabain dose ± SE, inducing arrhythmia” value ([3]; 1 mg/kg iv) was 0.185 ± 0.005 mg/kg and the “Ouabain dose ± SE, inducing asystole” value ([3]; 1 mg/kg iv) was 0.307 ± 0.002 mg/kg. The “HR ± SE … of test compound” value ([3]; 3 mg/kg iv) was 259 ± 10 beats/min, the “Ouabain dose ± SE, inducing arrhythmia” value ([3]; 3 mg/kg iv) was 0.215 ± 0.024 mg/kg and the “Ouabain dose ± SE, inducing asystole” value ([3]; 3 mg/kg iv) was 0.355 ± 0.02 mg/kg. The “HR ± SE … of test compound” value ([3]; 6 mg/kg iv) was 334 ± 11 beats/min, the “Ouabain dose ± SE, inducing arrhythmia” value ([3]; 6 mg/kg iv) was 0.212 ± 0.016 mg/kg and the “Ouabain dose ± SE, inducing asystole” value ([3]; 6 mg/kg iv) was 0.345 ± 0.026 mg/kg. For the same molecule, the “HR ± SE … of test compound” value ([3]; 12 mg/kg iv) was 349 ± 19 beats/min, the “Ouabain dose ± SE, inducing arrhythmia” value ([3]; 12 mg/kg iv) was 0.21 ± 0.016 mg/kg and the “Ouabain dose ± SE, inducing asystole” value ([3]; 12 mg/kg iv) was 0.36 ± 0.013 mg/kg. The “HR ± SE, O-value” ([3]; O-value (initial), group dosed 1 mg/kg iv) was 292 ± 1 beats/min, the “HR ± SE, O-value” [3, 12] was 260 ± 9 beats/min and the “HR ± SE, O-value” [3, 13] was 329 ± 15 beats/min. The “HR ± SE, O-value” [3, 10] was 329 ± 19 beats/min, the Anticonvulsive effect [6] was “no anticonvulsive effect” and the ED50 [4, 11] was over 300 mg/kg.

For `CC(=O)NCCS(=O)(=O)O` [N-acetyl taurine], the “Penetration of the blood-brain barrier” value [7] is listed as “penetrate the bloodbrain barrier”.

In the case of `CC(C)(C)C(=O)NCCS(=O)(=O)O` [N-pivaloyl taurine], the “Penetration of the blood-brain barrier” value [8] is given as “penetrated the blood-brain barrier”.

In the case of `CC(C)NCC(O)COc1cccc2ccccc12` (stereo not drawn) [Propranolol, reference compound], the “Ouabain dose ± SE, inducing arrhythmia” value ([3]; 1 mg/kg iv) is reported as 0.24 ± 0.005 mg/kg, the “Ouabain dose ± SE, inducing asystole” value ([3]; 1 mg/kg iv) is reported as 0.363 ± 0.011 mg/kg and the “Ouabain dose ± SE, inducing arrhythmia” value ([3]; 3 mg/kg iv) is reported as 0.295 ± 0.035 mg/kg. For the same molecule, the “Ouabain dose ± SE, inducing asystole” value ([3]; 3 mg/kg iv) was 0.435 ± 0.024 mg/kg, the “Ouabain dose ± SE, inducing arrhythmia” value ([3]; 6 mg/kg iv) was 0.269 ± 0.039 mg/kg and the “Ouabain dose ± SE, inducing asystole” value ([3]; 6 mg/kg iv) was 0.418 ± 0.034 mg/kg. For the same molecule, the “HR ± SE, O-value” ([3]; guinea pig, in vivo, iv, 1 mg/kg) was 280 ± 17 beats/min, the “HR ± SE, O-value” ([3]; guinea pig, in vivo, iv, 3 mg/kg) was 293 ± 17 beats/min and the “HR ± SE, O-value” ([3]; guinea pig, in vivo, iv, 6 mg/kg) was 301 ± 10 beats/min. The Bradycardia ([3]; guinea-pigs) was “caused bradycardia”.

In the case of `NCCS(=O)(=O)O` [Taurine, 2-aminoethanesulfonic acid], the Antiepileptic action (epileptic patients) is listed as “antiepileptic action” and the “Direct central anticonvulsive effect” value (experimental epilepsy) is listed as “direct central anticonvulsive effect”.
